Measured values reported in ChEMBL document CHEMBL3627682, “Exploration of the structure-activity relationship of 1,2,4-oxadiazole antibiotics” (2015).
Values after ≈ are worked out from the molar mass of the structure shown. One block for each compound: values may come before it.

Experiments:
Format in all cases: functional
Staphylococcus aureus [1] = experiment: Antibacterial activity against methicillin, oxacillin, and tetracycline-resistant and vancomycin and linezolid-susceptible Staphylococcus aureus ATCC 27660 expressing mecA
Bacillus licheniformis = experiment: Antibacterial activity against Bacillus licheniformis ATCC 12759
Staphylococcus aureus [2] = experiment: Antibacterial activity against vancomycin-resistant Staphylococcus aureus VRS1
Enterococcus faecalis [3] = experiment: Antibacterial activity against Enterococcus faecalis ATCC 29212
[4] = test system: Staphylococcus epidermidis; experiment: Antibacterial activity against Staphylococcus epidermidis ATCC 35547
Staphylococcus aureus [5] = experiment: Antibacterial activity against Staphylococcus aureus ATCC 29213
Staphylococcus aureus [6] = experiment: Antibacterial activity against vancomycin-resistant Staphylococcus aureus VRS2
Enterococcus faecium [7] = experiment: Antibacterial activity against vancomycin-resistant Enterococcus faecium 106
Staphylococcus aureus [8] = experiment: Antibacterial activity against ciprofloxacin, gentamicin, oxacillin, penicillin, and linezolid-resistant Staphylococcus aureus NRS120 expressing mecA
[9] = test system: Staphylococcus haemolyticus; experiment: Antibacterial activity against Staphylococcus haemolyticus ATCC 29970
Enterococcus faecalis [10] = experiment: Antibacterial activity against Enterococcus faecalis 201
Staphylococcus aureus [11] = experiment: Antibacterial activity against methicillin, oxacillin, and tetracycline-resistant and vancomycin and linezolid-susceptible Staphylococcus aureus NRS100 COL expressing mecA
Enterococcus faecalis [12] = experiment: Antibacterial activity against vancomycin-resistant Enterococcus faecalis 99
Enterococcus faecium [13] = experiment: Antibacterial activity against vancomycin-resistant Enterococcus faecium C68
Staphylococcus aureus [14] = experiment: Antibacterial activity against ciprofloxacin, gentamicin, oxacillin, penicillin, and linezolid-resistant Staphylococcus aureus NRS119 expressing mecA
Bacillus cereus = experiment: Antibacterial activity against Bacillus cereus ATCC 13061
Enterococcus faecium [15] = experiment: Antibacterial activity against Vancomycin-susceptible Enterococcus faecium 119-39A

Structure (SMILES): Oc1ccc(-c2nc(-c3ccc(Oc4ccc(C(F)(F)F)cc4)c(O)c3)no2)cc1
MIC (Staphylococcus aureus [1]): 16 µg/mL (≈ 38.6 µM)
MIC (Bacillus licheniformis): 16 µg/mL (≈ 38.6 µM)
MIC (Staphylococcus aureus [2]): 8 µg/mL (≈ 19.3 µM)
MIC (Enterococcus faecalis [3]): 8 µg/mL (≈ 19.3 µM)
MIC [4]: 16 µg/mL (≈ 38.6 µM)
MIC (Staphylococcus aureus [5]): 2 µg/mL (≈ 4.83 µM)
MIC (Staphylococcus aureus [6]): 8 µg/mL (≈ 19.3 µM)
MIC (Enterococcus faecium [7]): 8 µg/mL (≈ 19.3 µM)
MIC (Staphylococcus aureus [8]): 8 µg/mL (≈ 19.3 µM)
MIC [9]: 8 µg/mL (≈ 19.3 µM)
MIC (Enterococcus faecalis [10]): 8 µg/mL (≈ 19.3 µM)
MIC (Staphylococcus aureus [11]): 16 µg/mL (≈ 38.6 µM)
MIC (Enterococcus faecalis [12]): 16 µg/mL (≈ 38.6 µM)
MIC (Enterococcus faecium [13]): 8 µg/mL (≈ 19.3 µM)
MIC (Staphylococcus aureus [14]): 8 µg/mL (≈ 19.3 µM)
MIC (Bacillus cereus): 8 µg/mL (≈ 19.3 µM)
MIC (Enterococcus faecium [15]): 8 µg/mL (≈ 19.3 µM)

Structure (SMILES): Oc1ccc(-c2nc(-c3ccc(Oc4ccc(C(F)(F)F)cc4)cc3Cl)no2)cc1
MIC (Staphylococcus aureus [1]): 8 µg/mL (≈ 18.5 µM)
MIC (Bacillus licheniformis): 2 µg/mL (≈ 4.62 µM)
MIC (Staphylococcus aureus [2]): 2 µg/mL (≈ 4.62 µM)
MIC (Enterococcus faecalis [3]): 4 µg/mL (≈ 9.24 µM)
MIC [4]: 4 µg/mL (≈ 9.24 µM)
MIC (Staphylococcus aureus [5]): 2 µg/mL (≈ 4.62 µM)
MIC (Staphylococcus aureus [6]): 2 µg/mL (≈ 4.62 µM)
MIC (Enterococcus faecium [7]): 4 µg/mL (≈ 9.24 µM)
MIC (Staphylococcus aureus [8]): 4 µg/mL (≈ 9.24 µM)
MIC [9]: 4 µg/mL (≈ 9.24 µM)
MIC (Enterococcus faecalis [10]): 4 µg/mL (≈ 9.24 µM)
MIC (Staphylococcus aureus [11]): 8 µg/mL (≈ 18.5 µM)
MIC (Enterococcus faecalis [12]): 4 µg/mL (≈ 9.24 µM)
MIC (Enterococcus faecium [13]): 4 µg/mL (≈ 9.24 µM)
MIC (Staphylococcus aureus [14]): 4 µg/mL (≈ 9.24 µM)
MIC (Bacillus cereus): 4 µg/mL (≈ 9.24 µM)
MIC (Enterococcus faecium [15]): 4 µg/mL (≈ 9.24 µM)

Structure (SMILES): [N-]=[N+]=Nc1cc(-c2noc(-c3ccc(O)cc3)n2)ccc1Oc1ccc(C(F)(F)F)cc1
MIC (Staphylococcus aureus [1]): 4 µg/mL (≈ 9.1 µM)
MIC (Bacillus licheniformis): 4 µg/mL (≈ 9.1 µM)
MIC (Staphylococcus aureus [2]): 2 µg/mL (≈ 4.55 µM)
MIC (Enterococcus faecalis [3]): 2 µg/mL (≈ 4.55 µM)
MIC [4]: 2 µg/mL (≈ 4.55 µM)
MIC (Staphylococcus aureus [5]): 2 µg/mL (≈ 4.55 µM)
MIC (Staphylococcus aureus [6]): 2 µg/mL (≈ 4.55 µM)
MIC (Enterococcus faecium [7]): 4 µg/mL (≈ 9.1 µM)
MIC (Staphylococcus aureus [8]): 4 µg/mL (≈ 9.1 µM)
MIC [9]: 2 µg/mL (≈ 4.55 µM)
MIC (Enterococcus faecalis [10]): 4 µg/mL (≈ 9.1 µM)
MIC (Staphylococcus aureus [11]): 4 µg/mL (≈ 9.1 µM)
MIC (Enterococcus faecalis [12]): 4 µg/mL (≈ 9.1 µM)
MIC (Enterococcus faecium [13]): 4 µg/mL (≈ 9.1 µM)
MIC (Staphylococcus aureus [14]): 4 µg/mL (≈ 9.1 µM)
MIC (Bacillus cereus): 4 µg/mL (≈ 9.1 µM)
MIC (Enterococcus faecium [15]): 4 µg/mL (≈ 9.1 µM)

Structure (SMILES): Oc1ccc(-c2nc(-c3ccc(Sc4ccccc4)cc3)no2)cc1
MIC (Staphylococcus aureus [5]): 2 µg/mL (≈ 5.77 µM)

Structure (SMILES): Oc1ccc(-c2nc(-c3ccc(Sc4ccc(C(F)(F)F)cc4)cc3)no2)cc1
MIC (Staphylococcus aureus [1]): 2 µg/mL (≈ 4.83 µM)
MIC (Bacillus licheniformis): 1 µg/mL (≈ 2.41 µM)
MIC (Staphylococcus aureus [2]): 2 µg/mL (≈ 4.83 µM)
MIC (Enterococcus faecalis [3]): 2 µg/mL (≈ 4.83 µM)
MIC [4]: 2 µg/mL (≈ 4.83 µM)
MIC (Staphylococcus aureus [5]): 2 µg/mL (≈ 4.83 µM)
MIC (Staphylococcus aureus [6]): 2 µg/mL (≈ 4.83 µM)
MIC (Enterococcus faecium [7]): 2 µg/mL (≈ 4.83 µM)
MIC (Staphylococcus aureus [8]): 2 µg/mL (≈ 4.83 µM)
MIC [9]: 2 µg/mL (≈ 4.83 µM)
MIC (Enterococcus faecalis [10]): 2 µg/mL (≈ 4.83 µM)
MIC (Staphylococcus aureus [11]): 2 µg/mL (≈ 4.83 µM)
MIC (Enterococcus faecalis [12]): 2 µg/mL (≈ 4.83 µM)
MIC (Enterococcus faecium [13]): 2 µg/mL (≈ 4.83 µM)
MIC (Staphylococcus aureus [14]): 2 µg/mL (≈ 4.83 µM)
MIC (Bacillus cereus): 8 µg/mL (≈ 19.3 µM)
MIC (Enterococcus faecium [15]): 2 µg/mL (≈ 4.83 µM)

Structure (SMILES): CC(C)(C)OC(=O)Nc1ccc(-c2noc(-c3ccc(O)cc3)n2)cc1
MIC (Staphylococcus aureus [5]): 8 µg/mL (≈ 22.6 µM)

Structure (SMILES): Cl.Oc1ccc(-c2nc(-c3ccc(N4CCCCC4)cc3)no2)cc1
MIC (Staphylococcus aureus [5]): 8 µg/mL

Structure (SMILES): Oc1ccc(-c2nc(-c3ccc4occc4c3)no2)cc1
MIC (Staphylococcus aureus [5]): 64 µg/mL (≈ 230 µM)

Structure (SMILES): Oc1ccc(-c2nc(-c3ccc4sccc4c3)no2)cc1
MIC (Staphylococcus aureus [5]): ≥ 128 µg/mL

Structure (SMILES): Oc1ccc(-c2nc(-c3ccc4c(ccn4Cc4ccccc4)c3)no2)cc1
MIC (Staphylococcus aureus [5]): 128 µg/mL (≈ 348 µM)

Structure (SMILES): Cn1ccc2ccc(-c3noc(-c4n[nH]cc4Cl)n3)cc21
MIC (Staphylococcus aureus [5]): ≥ 128 µg/mL

Structure (SMILES): Oc1ccc(-c2nc(-c3ccc4c(c3)OCO4)no2)cc1
MIC (Staphylococcus aureus [5]): ≥ 128 µg/mL

Structure (SMILES): Clc1c[nH]nc1-c1nc(-c2ccc3c(c2)OCO3)no1
MIC (Staphylococcus aureus [5]): ≥ 128 µg/mL

Structure (SMILES): O=C1OCc2cc(-c3noc(-c4n[nH]cc4Cl)n3)ccc21
MIC (Staphylococcus aureus [5]): ≥ 128 µg/mL

Second part, the compound after the results:

MIC (Staphylococcus aureus [5]): 4 µg/mL (≈ 7.63 µM)
Structure (SMILES): Oc1ccc(-c2nc(-c3ccc(Oc4ccc(C(F)(F)F)cc4)c(I)c3)no2)cc1

MIC (Staphylococcus aureus [5]): 4 µg/mL (≈ 9.02 µM)
Structure (SMILES): O=[N+]([O-])c1cc(Oc2ccc(C(F)(F)F)cc2)ccc1-c1noc(-c2ccc(O)cc2)n1

MIC (Staphylococcus aureus [5]): 8 µg/mL (≈ 17.6 µM)
Structure (SMILES): C=CCOc1cc(-c2noc(-c3ccc(O)cc3)n2)ccc1Oc1ccc(C(F)(F)F)cc1

MIC (Staphylococcus aureus [5]): 8 µg/mL (≈ 19.2 µM)
Structure (SMILES): Oc1ccc(-c2nc(-c3ccc(Oc4ccc(C(F)(F)F)cc4)c(F)c3)no2)cc1

MIC (Staphylococcus aureus [5]): 8 µg/mL (≈ 18 µM)
Structure (SMILES): O=[N+]([O-])c1cc(-c2noc(-c3ccc(O)cc3)n2)ccc1Oc1ccc(C(F)(F)F)cc1

MIC (Staphylococcus aureus [5]): 8 µg/mL (≈ 27.5 µM)
Structure (SMILES): Cn1ccc2cc(-c3noc(-c4ccc(O)cc4)n3)ccc21

MIC (Staphylococcus aureus [5]): 8 µg/mL (≈ 27.5 µM)
Structure (SMILES): Cn1ccc2ccc(-c3noc(-c4ccc(O)cc4)n3)cc21

MIC (Staphylococcus aureus [5]): 2 µg/mL (≈ 5.49 µM)
Structure (SMILES): Oc1ccc(-c2nc(-c3ccc(Sc4ccc(F)cc4)cc3)no2)cc1

MIC (Staphylococcus aureus [5]): 4 µg/mL (≈ 12.1 µM)
Structure (SMILES): Oc1ccc(-c2nc(-c3ccc(Nc4ccccc4)cc3)no2)cc1

MIC (Staphylococcus aureus [5]): 8 µg/mL (≈ 18.8 µM)
Structure (SMILES): Oc1ccc(-c2nc(-c3ccc(Sc4cccc(Br)c4)cc3)no2)cc1

MIC (Staphylococcus aureus [5]): ≥ 128 µg/mL
Structure (SMILES): Nc1cc(-c2noc(-c3ccc(O)cc3)n2)ccc1Oc1ccc(C(F)(F)F)cc1

MIC (Staphylococcus aureus [5]): ≥ 128 µg/mL
Structure (SMILES): [N-]=[N+]=Nc1cc(Oc2ccc(C(F)(F)F)cc2)ccc1-c1noc(-c2ccc(O)cc2)n1

MIC (Staphylococcus aureus [5]): ≥ 128 µg/mL
Structure (SMILES): Oc1ccc(-c2nc(-c3ccc(Oc4ccc(C(F)(F)F)cc4)c(Cl)c3)no2)cc1

MIC (Staphylococcus aureus [5]): ≥ 128 µg/mL
Structure (SMILES): O=C1OCc2cc(-c3noc(-c4ccc(O)cc4)n3)ccc21
